Publication PMC12037410, “Pharmacological targeting of BMAL1 modulates circadian and immune pathways” (Nature Chemical Biology, 2025)
Read-outs that look alike come from different tables or passages of the source. Residues, ends and D or L forms follow the SMILES beside them.

Target: BMAL1 (Homo sapiens, UniProt O00327)
Parameters: PASB domain (residues 338–449); Protein thermal shift (PTS) fragment screen on recombinant human BMAL1(PASB), shift of melting temperature
Details: binder

Sequence of BMAL1 (O00327 338-449): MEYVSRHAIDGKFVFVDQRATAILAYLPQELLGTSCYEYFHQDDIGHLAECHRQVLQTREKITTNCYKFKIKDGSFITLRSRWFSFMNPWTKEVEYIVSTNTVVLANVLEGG

| Compound | Bmal1(PASB) dTmB (dTmB) [°C] | also measured |
| --- | --- | --- |
| CN1[C@@H]2CC[C@H]1CC(O)C2 (some centres unmarked) [Prestw-Frag-0608, Compound 128] | -0.41 |  |
| CC(C)(C)NCC(O)COc1ccccc1C1CCCC1 (centres unmarked) [Prestw-Frag-0674, Compound 468] | -1.95 |  |
| O=c1ccc2ccccc2o1 [Prestw-Frag-1000, Compound 307] | -0.26 |  |
| Nc1cc2ccccc2oc1=O [Prestw-Frag-1001, Compound 197] | 0.68 |  |
| Cc1cc(-c2ccccc2)nnc1N [Prestw-Frag-1003, Compound 243] | -0.88 |  |
| NC(=O)NS(=O)(=O)c1ccccc1 [Prestw-Frag-1006, Compound 100] | 0.09 |  |
| CC(=O)Nc1nncs1 [Prestw-Frag-1008, Compound 401] | -0.09 |  |
| Nc1nncs1 [Prestw-Frag-1009, Compound 188] | -0.33 |  |
| COC(=O)C(c1ccccc1)c1ccccc1 [Prestw-Frag-1013, Compound 353] | -1.32 |  |
| c1ccc2c3c([nH]c2c1)CNCC3 [Prestw-Frag-1014, Compound 154] | -0.81 |  |
| Cc1cc(C(C)(C)CC(C)(C)C)ccc1O [Prestw-Frag-1016, Compound 351] | 0.69 |  |
| C[N+](C)(CCO)Cc1ccccc1 [Prestw-Frag-1017, Compound 159] | -0.27 |  |
| NC(=O)Cc1cccs1 [Prestw-Frag-1019, Compound 237] | -0.24 |  |
| CC1=NN(c2ccccc2)C(=O)C1 [Prestw-Frag-1028, Compound 259] |  | Bmal1(PASB) dTmB (dTmB, Bmal1(PASB) dTmB): 0.76 °C |
| NCCCCc1ccccc1 [Prestw-Frag-1031, Compound 371] | -0.34 |  |
| COc1ccc(Cc2ccc(OC)cc2)cc1 [Prestw-Frag-1033, Compound 354] | -0.11 |  |
| NCc1c(N)ccc(Cl)c1Cl [Prestw-Frag-1039, Compound 337] | 0.01 |  |
| O=C(O)c1ccccc1O [Prestw-Frag-1045, Compound 55] | -0.68 |  |
| CCC(=O)NC1=NC=NC2=NC=NC21 (centres unmarked) [Prestw-Frag-1047, Compound 47] | -0.65 |  |
| Nc1nc2ccccc2n1Cc1ccc(F)cc1 [Prestw-Frag-1050, Compound 460] | -1.64 |  |
| COc1ccc(CCN2CCC(N)CC2)cc1 [Prestw-Frag-1051, Compound 427] | -0.58 |  |
| CC(C)(Oc1ccccc1)C(=O)O [Prestw-Frag-1053, Compound 221] | 0.07 |  |
| Nc1ccc[nH]c1=O [Prestw-Frag-1060, Compound 123] | -2.04 |  |
| COc1cc2c(cc1O)CCN[C@H]2C [Prestw-Frag-1063, Compound 388] | -0.57 |  |
| COc1ccc(CCN)cc1O [Prestw-Frag-1064, Compound 320] | -0.32 |  |
| O=[N+]([O-])c1ccc(CO)cc1 [Prestw-Frag-1071, Compound 105] | -0.41 |  |

| Compound | Bmal1(PASB) dTmB (dTmB) [°C] | also measured |
| --- | --- | --- |
| CCC1=C(C)CN(C(=O)NCCc2ccccc2)C1=O [Prestw-Frag-1075, Compound 420] | -0.68 |  |
| NCCc1ccc(S(N)(=O)=O)cc1 [Prestw-Frag-1076, Compound 338] |  | Bmal1(PASB) dTmB: -0.53 |
| CC(=O)c1cc(Cl)ccc1O [Prestw-Frag-1083, Compound 280] | -0.22 |  |
| O=c1[nH]c2ccccc2o1 [Prestw-Frag-1087, Compound 245] | -0.27 |  |
| CC(=O)c1ccc(N2CCNCC2)c(F)c1 [Prestw-Frag-1094, Compound 141] | -0.42 |  |
| Cc1ncsc1CCO [Prestw-Frag-1098, Compound 189] | -0.60 |  |
| NC(=O)[C@H](N)c1ccccc1 [Prestw-Frag-1099, Compound 271] | -0.22 |  |
| OC(c1ccccc1)c1ccc(Cl)cc1 (centres unmarked) [Prestw-Frag-1106, Compound 474] | -2.07 |  |
| c1ccc(N2CCNCC2)nc1 [Prestw-Frag-1110, Compound 364] | -0.48 |  |
| COC(=O)c1scc(C)c1N [Prestw-Frag-1111, Compound 362] | -0.95 |  |
| CCN(Cc1ccccc1)c1ccccc1 [Prestw-Frag-1121, Compound 375] | -1.19 |  |
| OC(c1ccccc1)c1ccccc1 [Prestw-Frag-1122, Compound 454] | -1.61 |  |
| NCC(CC(=O)O)c1ccccc1 (centres unmarked) [Prestw-Frag-1125, Compound 234] | -0.06 |  |
| O=C(O)CCc1ccc(Cl)cc1 [Prestw-Frag-1126, Compound 340] | -0.19 |  |
| Cc1oncc1C(N)=O [Prestw-Frag-1128, Compound 133] | -0.10 |  |
| Cc1c(O)c2ccccc2oc1=O [Prestw-Frag-1130, Compound 324] | 0.05 |  |
| O=c1cc(O)c2ccccc2o1 [Prestw-Frag-1131, Compound 301] | 0.28 |  |
| COc1ccc2ccncc2c1 [Prestw-Frag-1133, Compound 321] | -1.08 |  |
| Cn1c(=O)[nH]c2nc[nH]c2c1=O [Prestw-Frag-1138, Compound 38] | -0.59 |  |
| CNC(C)(C)Cc1ccccc1 [Prestw-Frag-1141, Compound 101] | -0.69 |  |
| COc1cc(N)ncn1 [Prestw-Frag-1154, Compound 185] | -0.03 |  |
| Oc1cccc2c1CCCC2 [Prestw-Frag-1156, Compound 412] | -1.05 |  |
| Cc1nnc(N)s1 [Prestw-Frag-1161, Compound 49] | -1.77 |  |
| C(=C\c1ccccc1)/CN1CCNCC1 [Prestw-Frag-1163, Compound 295] | -0.92 |  |
| c1ccc2[nH]c(CN3CCCC3)nc2c1 [Prestw-Frag-1164, Compound 180] | -0.18 |  |
| COc1ccc(N)nn1 [Prestw-Frag-1167, Compound 140] | -0.58 |  |

| Compound | Bmal1(PASB) dTmB (dTmB) [°C] | also measured |
| --- | --- | --- |
| OC(Cn1ccnc1)c1ccc(Cl)cc1Cl (centres unmarked) [Prestw-Frag-1182, Compound 411] | -0.85 |  |
| COc1cc2ccncc2cc1OC [Prestw-Frag-1183, Compound 290] | -1.26 |  |
| Nc1ccc(Cl)nn1 [Prestw-Frag-1184, Compound 263] | -0.26 |  |
| CN1CCC[C@H]1c1cccnc1 [Prestw-Frag-1187, Compound 13] | -0.52 |  |
| Cc1c(N)cccc1C(F)(F)F [Prestw-Frag-1189, Compound 334] | -0.15 |  |
| O=C(O)c1cccnc1Nc1ccccc1 [Prestw-Frag-1191, Compound 63] | 0.02 |  |
| c1ccc(C(CCN2CCCCC2)c2ccccc2)cc1 [Prestw-Frag-1193, Compound 402] | -2.05 |  |
| CC(Oc1ccccc1)C(N)=O (centres unmarked) [Prestw-Frag-1200, Compound 240] | -0.43 |  |
| CN1CCN(c2nccc(N)n2)CC1 [Prestw-Frag-1204, Compound 238] | -0.40 |  |
| CS(=O)(=O)c1ccc(N)cc1 [Prestw-Frag-1214, Compound 111] | -0.40 |  |
| COc1cccc2c1CCCC2=O [Prestw-Frag-1236, Compound 356] | -1.28 |  |
| Oc1ccc(-c2ccc(F)cc2F)cc1 [Prestw-Frag-1237, Compound 467] | -0.75 |  |
| O=C(O)c1cccc(-c2ccc(F)cc2F)c1 [Prestw-Frag-1238, Compound 368] | -0.92 |  |
| O=C(O)c1cc(-c2ccc(F)cc2)ccc1O [Prestw-Frag-1239, Compound 277] | -1.13 |  |
| O=C(O)c1cc(-c2ccccc2)ccc1O [Prestw-Frag-1240, Compound 74] | -0.48 |  |
| CC(C)C1NCCc2c1[nH]c1ccccc21 (centres unmarked) [Prestw-Frag-1264, Compound 134] | -1.09 |  |
| NC1=NCCN1 [Prestw-Frag-1268, Compound 246] | -0.47 |  |
| COc1cc2c(cc1OC)C(C)N(C)CC2 (centres unmarked) [Prestw-Frag-1273, Compound 218] | -0.29 |  |
| C[C@H](N)C(=O)N1CCC[C@H]1C(=O)O [Prestw-Frag-1275, Compound 264] (H-Ala-Pro-OH) | -0.70 |  |
| OCc1cc2ccccc2[nH]1 [Prestw-Frag-1297, Compound 419] | 0.70 |  |
| CCc1cccc2c(CCO)c[nH]c12 [Prestw-Frag-1299, Compound 129] | -0.11 |  |
| OCCn1ccnc1 [Prestw-Frag-1303, Compound 120] | 0.13 |  |
| C[C@H]1NC(=O)NC1=O [Prestw-Frag-1311, Compound 224] | -0.36 |  |
| COc1ccc(C(=O)O)cc1N1CCCC1 [Prestw-Frag-1313, Compound 40] | -0.37 |  |
| O=C(O)c1ccccc1Nc1cccc(Cl)c1 [Prestw-Frag-1319, Compound 28] | -2.88 |  |
